The results in this text go back to patent US20250064846A1, “TREATMENT AND PREVENTION OF TRIGEMINAL NEURALGIA” (THE JOHNS HOPKINS UNIVERSITY, priority 2022, published 2025).

Assay [1] concerns NRF2. Kind of assay: NRF2/ARE Luciferase Reporter Assay (HEK293 stable cell line). The class given is cell-based, human. The note with it: 6 hrs exposure to varying concentrations, relative to vehicle, normalized to total protein. As to the method: NRF2/ARE Luciferase Reporter Assay NRF2 activity was monitored with a reporter cell line in which changes in NRF2 activity are coupled to the expression of firefly luciferase (NRF2/ARE Luciferase Reporter HEK293 Stable Cell Line). Luciferase activity was quantified with the Luciferase Assay System as per the manufacturer's instructions. Briefly, cells were plated at 125,000 cells/well in a 24-well plate. The following day, cells were treated with either vehicle or varying doses of sulforaphane, exemestane, or JQ-1 for 6 hours. Cells were then lysed in passive lysis buffer (Promega E1941) supplemented with protease inhibitors (Sigma). Lysates were then cleared at 16,000 g for 15 minutes at 4° C. 15 μL of each lysate was mixed with 5 μL of luciferase assay substrate (Promega). Total light was measured using a luminometer with a 10 second integration time with a delay of 2 seconds. Luciferase measurements were normalized to total protein and reported as normalized to the vehicle condition.
(In a reporter assay the amount or activity of a reporter protein is the signal.)

Assay [2] concerns NRF2. Put plainly: NRF2 stability, ubiquitination and nuclear translocation in HEK-293 cells overexpressing FLAG-KEAP1 and myc-NRF2. The class given is cell-based. The note with it: for stabilization of NRF2 / nuclear translocation of NRF2: 10 μM for 6 hours; for nuclear translocation of NRF2: nuclear myc-NRF2 vs vehicle; for inhibition of NRF2 ubiquitination: HEK-293 cells overexpressing FLAG-KEAP1, myc-NRF2 and HA-ubiquitin. How it is done:
To determine a ratio of KFAP1 to NRF2 cDNA that best mimics baseline NRF2 activity, luciferase activity was measured 48 h after transfection with varying ratios of KEAP1 to NRF2 cDNA, normalized to total protein (FIG. 21A). Luciferase expression is controlled by a promoter that contains several NRF2 binding sites and is thus a measure of NRF2 activity. A 2.5 μg KFAP1 to 1 μg NRF2 cDNA ratio returned luciferase activity to baseline and was therefore employed for subsequent biochemical studies evaluating NRF2 stability and nuclear translocation. FIGS. 21B and 21C show the quantification (FIG. 21B) and immunoblots (FIG. 21C) of myc-NRF2, GAPDH, and H2B in whole cell lysates and cytoplasmic and nuclear subcellular fractions of HEK-293 cells overexpressing FLAG-KEAP1 and myc-NRF2, treated with vehicle, 10 μM MG-132, 10 μM sulforaphane (SF), 10 μM exemestane, or 10 μM JQ-1 for 6 hours. Data are expressed as a normalized ratio of nuclear myc-NRF2 compared to the vehicle-treated condition. FIG. 21D is immunoblots of lysates (input) and myc immunoprecipitate (IP) from HEK-293 cells overexpressing FLAG-KEAP1, myc-NRF2, and HA-ubiquitin. Data are either representative of or quantified from n=3 independent experiments except in FIG. 21A, where n=1 in triplicate. In FIG. 21A, mean f SEM depicted. In FIG. 21B, median and range depicted. *=P<0.05 and ns=P>0.05 by one-way ANOVA followed by post-hoc Dunnett's test.

For another assay, the system named is TRPA1. Kind of assay: Western blot for TRPA1 from maxillary nerves. The class given is in vivo, mouse. To be noted: normalized to β-actin; vs vehicle. An excerpt:
FIGS. 15A-15H are western blots for TRPA1 (FIGS. 15A, 15C, 15E, and 15G) and graphs of relative TRPA1 expression (FIGS. 15B, 15D, 15F and 15H) from maxillary nerves of mice following constriction compared to sham surgery (FIG. 15A-15B) or treatment with sulforaphane (FIG. 15C-15D), exemestane (FIG. 15E-15F), or JQ-1 (FIG. 15G-15H), normalized to β-actin. Lanes and points represent individual mice. Median and range depicted in graphs of relative TRPA1 expression. ns=P>0.05 by two-tailed unpaired Student's t-test.
Western Blotting Western blotting was performed as previously described (See Vasavda, C. et al. Cell Chem Biol 26, 1450-1460.e7 (2019)). Briefly, tissues were homogenized at 4° C. in lysis buffer (pH 7.4 solution of 50 mM Tris-HCl, 150 mM NaCl, 0.1% SDS, 0.5% sodium deoxycholate, and 1% Triton X-100) supplemented with protease inhibitors (Sigma). When dissecting maxillary nerves for immunoblot analysis, nerves were as dissected both as proximally towards the semilunar ganglion and as distal to the skin as possible. Nerves were harvested 11 days after surgery, immediately after the final behavioral test. Lysates were then pulse sonicated and centrifuged at 16,000 g for 10 min at 4° C. Fifteen micrograms of cleared lysate were run on a 4-12% polyacrylamide Bis-Tris gradient gel in running buffer (pH 7.3 solution of 50 mM MES, 50 mM Tris Base, 0.1% SDS, 1 mM EDTA) and then transferred to a PVDF membrane. Membranes were blocked with 5% milk in TBS-T (pH 7.6 solution of 16 mM Tris-HCl, 140 mM NaCl, 0.1% Tween-20) for 1 hr at 25° C. and then incubated with primary antibodies in 3% bovine serum albumin (BSA) (w/v) in TBS-T overnight at 4° C. The following day, membranes were washed with TBS-T, and then incubated with secondary antibodies in 3% BSA (w/v) in TBS-T for 1 hr at 25° C. The following primary antibodies were used: rabbit anti-4-HNE (Abeam ab46545; 1:1.000), rabbit anti-TRPA1 (Novus Biologicals NB110-40763; 1:1,000), rabbit anti-DNP (Millipore Sigma 90451; 1:150), and mouse anti-β-actin (Santa Cruz Biotech sc-47778 HRP; 1:10,000). […]
A general note: Immunoblotting shows a protein as a band on a membrane.

As for `C=C1C[C@@H]2[C@H](CC[C@]3(C)C(=O)CC[C@@H]23)[C@@]2(C)C=CC(=O)C=C12` [exemestane, 6-methylenandrosta-1,4-diene-3,17-dione], the “luciferase expression in the NRF2 reporter line” value (“luciferase expression” for short) in the assay with NRF2 [1] was “similarly increased luciferase expression”. Also, in the assay on NRF2 [2], the “stabilization of NRF2” value was “both sulforaphane and exemestane do”; the “nuclear translocation of NRF2” value is “promote nuclear translocation of NRF2”; the “inhibition of NRF2 ubiquitination” value was “both sulforaphane and exemestane do”. Moreover, in the assay with TRPA1, the “TRPA1 expression in maxillary nerves” value is listed as “did not affect TRPA1 expression”.
As to `Cc1sc2c(c1C)C(c1ccc(Cl)cc1)=N[C@@H](CC(=O)OC(C)(C)C)c1nnc(C)n1-2` [JQ-1, (S)-tert-butyl 2-(4-(4-chlorophenyl)-2,3,9-trimethyl-6H-thieno[3,2-f][1,2,4]triazolo[4,3-a][1,4]diazepin-6-yl)acetate], the “luciferase expression” value in the assay on NRF2 [1] is on record as “did not stimulate luciferase expression”. In the assay with NRF2 [2], the “stabilization of NRF2” value is “neither stabilizes NRF2”, the “nuclear translocation of NRF2” value is given as “does not” and the “inhibition of NRF2 ubiquitination” value is recorded as “nor inhibits its ubiquitination”. The “TRPA1 expression in maxillary nerves” value with TRPA1 is “did not affect TRPA1 expression”.
As for `C[S+]([O-])CCCCN=C=S` (stereo not drawn) [sulforaphane, 1-isothiocyanato-4-(methanesulfinyl)butane], in the assay with NRF2 [1], the “luciferase expression” value is recorded as “dose-dependently increased luciferase expression”. For the same molecule, in the assay with NRF2 [2], the “stabilization of NRF2” value is “both sulforaphane and exemestane do”; the “nuclear translocation of NRF2” value is “promote nuclear translocation of NRF2”; the “inhibition of NRF2 ubiquitination” value was “both sulforaphane and exemestane do”. In addition, the “TRPA1 expression in maxillary nerves” value with TRPA1 is reported as “did not affect TRPA1 expression”.
